In general, IC50 refers to the concentration needed to halve the response being measured. A higher IC50 goes with a need for much substance. Broadly, the Ki is a measure of affinity in units of concentration, obtained from inhibition or displacement.

“Also recorded” adds a separate entry of the source. Where only a bound is given, the exact number is not on record here.

Series [1] has as its target opioid (non-selective) receptor. Put plainly: Receptor binding assay, opioid (non-selective) (antagonist radioligand). From the text:
(§1) Receptor binding assays (Table 1 and FIGS. 1-4)

A further series deals with mu opioid receptor (Homo sapiens, UniProt P35372). Put plainly: Cellular functional assay, mu opioid receptor. Type of series: cell-based. The settings on record: EC50 values were not determined.
Series [2] in a line: In vivo pharmacokinetics and brain partition study. The settings on record: rats, fasted, single 1 mg/kg iv dose. As to the method: single 1 mg/kg iv dose administered in rats under fasted conditions plasma concentrations determined at 10 time points (2 mins -24 hrs) brain partition ratio determined at 1 and 4 hours
The next series deals with kappa opioid receptor (Homo sapiens, UniProt P41145). Put plainly: Cellular functional assay, kappa opioid receptor. Type of series: cell-based. The settings on record: EC50 values were not determined.
The target in the next series is T1, kappa (KOP) receptor (Rattus norvegicus, UniProt P34975).
T1 construct: Cerep
Briefly: Receptor binding assay, κ (KOP) (agonist radioligand).
Text: as §1

In series [3] the target is T2, human delta 2 (DOP) receptor (Homo sapiens, UniProt P41143).
T2 construct: Cerep
Briefly: Receptor binding assay, δ2 (DOP) (h) (agonist radioligand).
Text: as §1

For a further series, the target named is T3, human mu (MOP) receptor (Homo sapiens, UniProt P35372).
T3 construct: Cerep
Briefly: Receptor binding assay, μ (MOP) (h) (agonist radioligand).
Text: as §1

T1 sequence (P34975 whole entry): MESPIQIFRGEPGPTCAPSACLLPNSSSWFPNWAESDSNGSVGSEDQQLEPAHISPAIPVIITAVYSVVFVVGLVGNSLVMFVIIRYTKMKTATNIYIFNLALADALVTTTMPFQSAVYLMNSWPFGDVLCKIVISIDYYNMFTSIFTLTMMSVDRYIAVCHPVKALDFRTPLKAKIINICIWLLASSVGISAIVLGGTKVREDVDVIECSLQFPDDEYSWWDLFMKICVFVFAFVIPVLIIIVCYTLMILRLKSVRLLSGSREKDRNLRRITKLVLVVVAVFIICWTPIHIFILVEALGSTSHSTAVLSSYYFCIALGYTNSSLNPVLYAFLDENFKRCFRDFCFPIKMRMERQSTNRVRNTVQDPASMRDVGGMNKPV
T3 sequence (P35372 whole entry): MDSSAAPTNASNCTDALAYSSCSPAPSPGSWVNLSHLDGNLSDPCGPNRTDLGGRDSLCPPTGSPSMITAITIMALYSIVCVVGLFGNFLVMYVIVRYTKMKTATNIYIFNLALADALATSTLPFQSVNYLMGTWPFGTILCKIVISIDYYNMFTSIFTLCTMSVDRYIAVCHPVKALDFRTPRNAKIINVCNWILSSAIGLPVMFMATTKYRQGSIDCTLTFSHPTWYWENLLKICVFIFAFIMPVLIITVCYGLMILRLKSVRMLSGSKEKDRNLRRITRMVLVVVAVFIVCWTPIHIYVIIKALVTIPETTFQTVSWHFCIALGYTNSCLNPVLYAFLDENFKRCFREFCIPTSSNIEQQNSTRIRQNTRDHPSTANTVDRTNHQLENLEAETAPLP
T2 sequence (P41143 whole entry): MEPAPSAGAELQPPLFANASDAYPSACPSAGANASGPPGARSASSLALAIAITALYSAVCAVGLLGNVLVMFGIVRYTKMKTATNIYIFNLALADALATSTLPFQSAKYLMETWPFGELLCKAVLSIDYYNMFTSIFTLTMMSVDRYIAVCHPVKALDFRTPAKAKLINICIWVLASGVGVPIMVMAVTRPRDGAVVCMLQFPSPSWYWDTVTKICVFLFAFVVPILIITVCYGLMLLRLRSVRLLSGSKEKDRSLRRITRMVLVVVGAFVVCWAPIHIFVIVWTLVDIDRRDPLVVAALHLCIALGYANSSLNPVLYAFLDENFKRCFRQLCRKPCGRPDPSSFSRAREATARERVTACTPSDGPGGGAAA
mu opioid receptor, sequence (P35372 whole entry): as the sequence (P35372 whole entry) above
kappa opioid receptor, sequence (P41145 whole entry): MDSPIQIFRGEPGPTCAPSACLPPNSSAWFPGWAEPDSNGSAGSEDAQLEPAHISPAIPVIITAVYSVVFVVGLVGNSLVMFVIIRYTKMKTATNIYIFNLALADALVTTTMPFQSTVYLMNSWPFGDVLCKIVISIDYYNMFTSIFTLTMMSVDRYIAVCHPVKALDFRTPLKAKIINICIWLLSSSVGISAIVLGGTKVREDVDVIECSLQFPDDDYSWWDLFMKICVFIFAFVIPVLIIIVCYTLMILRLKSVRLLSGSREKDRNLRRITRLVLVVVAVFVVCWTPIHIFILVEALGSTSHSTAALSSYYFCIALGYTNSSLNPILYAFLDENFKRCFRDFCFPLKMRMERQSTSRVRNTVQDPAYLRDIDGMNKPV

As to `CN1CC[C@]23c4c5ccc(F)c4O[C@H]2[C@@H](O)C=C[C@H]3[C@H]1C5` [F-morphine], the concentration for half-maximal inhibition (IC50) in series [1] was 800 nM; on kappa (KOP) receptor, 8500 nM; in series [3], > 10000 nM; at human mu (MOP) receptor, 370 nM. Besides, the inhibition constant (Ki) was found to be 580 nM in series [1], 5600 nM on kappa (KOP) receptor and 150 nM at human mu (MOP) receptor. Besides, on mu opioid receptor, the “function at mu opioid receptor” value is on record as “agonist”. The Kp at 4 h in series [2] (rat, brain/plasma, at 1 and 4 hours, read-out: brain/plasma ratio) was in the range of 2 to 3. The “brain partition (in words)” value in series [2] was “partitions well into the brain”. Also, the “function at kappa opioid receptor” value at kappa opioid receptor is listed as “agonist”. In addition, the results for the nH at kappa (KOP) receptor (agonist radioligand) and at human mu (MOP) receptor (agonist radioligand) were 1.1 and 0.9, respectively. Moreover, the “Delta: binding” value in series [3] was “no observed binding; also recorded: no significant binding up to 10 uM”.

The record behind these values is patent publication US20120149900A1, “FLUORINE CONTAINING COMPOUNDS AND METHODS OF USE THEREOF” (priority 2009, published 2012).
